Experimental data as given in PubChem BioAssay (NCI).
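A five-concentration, 48-hour dose response in 96-well plates underlies each endpoint, interpolated linearly between surrounding concentrations. TGI is the concentration that stops growth completely.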

How the values were obtained:
Test in all cases: growth of human tumour cells (NCI), 48 h
[1] = system: RPMI-8226 leukemia
[2] = system: HT29 colon
[3] = system: IGROV1 ovarian
[4] = system: HL-60(TB) leukemia
[5] = system: MCF7 breast
[6] = system: SF-295 CNS
[7] = system: NCI/ADR-RES ovarian
[8] = system: HCT-116 colon
[9] = system: U251 CNS
[10] = system: BT-549 breast
[11] = system: OVCAR-4 ovarian
[12] = system: SF-539 CNS
[13] = system: NCI-H226 lung
[14] = system: UACC-257 melanoma
[15] = system: A498 renal
[16] = system: HOP-92 NSCLC
[17] = system: HS 578T breast
[18] = system: OVCAR-8 ovarian
[19] = system: MDA-N
[20] = system: NCI-H23 lung
[21] = system: PC-3 prostate
[22] = system: SK-OV-3 ovarian
[23] = system: DU-145 prostate
[24] = system: HOP-62 NSCLC
[25] = system: KM12 colon
[26] = system: MDA-MB-435
[27] = system: SNB-75 CNS
[28] = system: OVCAR-5 ovarian
[29] = system: 786-0 renal
[30] = system: HCT-15 colon
[31] = system: NCI-H522 lung
[32] = system: SF-268 CNS
[33] = system: A549 NSCLC
[34] = system: MALME-3M melanoma
[35] = system: TK-10 renal
[36] = system: UO-31 renal
[37] = system: SN12C renal
[38] = system: COLO 205 colon
[39] = system: EKVX NSCLC
[40] = system: ACHN renal
[41] = system: SNB-19 CNS
[42] = system: UACC-62 melanoma
[43] = system: NCI-H460 lung
[44] = system: M14 melanoma
[45] = system: RXF 393 renal
[46] = system: SK-MEL-28 melanoma
[47] = system: SK-MEL-2 melanoma
[48] = system: CCRF-CEM leukemia
[49] = system: MDA-MB-231 breast
[50] = system: K-562 leukemia
[51] = system: MOLT-4 leukemia
[52] = system: HCC-2998 colon
[53] = system: OVCAR-3 ovarian
[54] = system: SW-620 colon
[55] = system: SK-MEL-5 melanoma
[56] = system: T-47D breast
[57] = system: M19-MEL melanoma
[58] = system: HOP-18 NSCLC
[59] = system: DMS 273 small cell lung
[60] = system: SR leukemia
[61] = system: SNB-78 CNS
[62] = system: LXFL 529 NSCLC
[63] = system: KM20L2 colon
[64] = system: DLD-1 colon
[65] = system: CAKI-1 renal
[66] = system: DMS 114 small cell lung
[67] = system: LOX IMVI melanoma

Measured: TGI

CCN1CSC(=S)N(CC)C1
71.1 µM: [24]
47.4 µM: [4]
73.9 µM: [49]
76 µM: [12]
not listed: [57] | [58] | [59] | [60] | [61] | [62] | [63] | [64] | [65] | [66] | [67]
> 100 µM: all other assays above

CC(=O)O[C@@H]1C2C(=O)OC(=O)C2C2CCC[C@]23O[C@H]13 (stereo partly drawn)
not listed: [2] | [5] | [6] | [7] | [10] | [16] | [17] | [19] | [20] | [21] | [23] | [26] | [28] | [39] | [49] | [56] | [67]
> 100 µM: all other assays above

O=C1C(Br)=C(c2ccccc2)S(=O)c2ccccc21 (stereo not drawn)
31.3 µM: [18]
27 µM: [44]
6.53 µM: [40]
22.4 µM: [34]
6.63 µM: [4]
34.6 µM: [6]
80.6 µM: [17]
39.9 µM: [41]
32.1 µM: [10]
41 µM: [28]
19.5 µM: [26]
30.7 µM: [25]
31 µM: [37]
24.7 µM: [55]
39.7 µM: [20]
32.9 µM: [22]
> 100 µM: [7]
14.1 µM: [30]
5.68 µM: [24]
63.5 µM: [2]
32.2 µM: [35]
12.9 µM: [12]
28.2 µM: [67]
22.8 µM: [9]
29.2 µM: [49]
20.4 µM: [8] | [19]
10.6 µM: [56]
62 µM: [33]
36.5 µM: [32]
42.1 µM: [46]
23.1 µM: [3]
33.8 µM: [47]
25.8 µM: [14]
11.8 µM: [50]
40.7 µM: [13]
38.4 µM: [54]
26.6 µM: [42]
10.4 µM: [5]
27.9 µM: [23] | [52]
5.86 µM: [11]
36.8 µM: [16]
21.2 µM: [21]
3.35 µM: [31]
40.6 µM: [43]
3.95 µM: [38]
31.1 µM: [27]
7.62 µM: [29]
26 µM: [53]
33.9 µM: [39]
21.8 µM: [65]
27.2 µM: [36]
24.8 µM: [45]

O=S1(=O)c2ccccc2NC(=S)CC1c1ccccc1 (stereo not drawn)
79.8 µM: [6]
not listed: [12] | [15] | [16] | [47] | [52] | [54] | [57] | [58] | [59] | [61] | [62] | [63] | [64] | [66]
> 100 µM: all other assays above
